# Laboratory results as given in US11166460B2, “α-amino acrylate microbicide, and preparation method therefor and uses thereof” (priority 2017, dated 2021).
# Read-outs that look alike come from different tables or passages of the source.
# What was measured:
# [1] = system: tobacco mosaic virus (TMV); assay: Anti-TMV curative activity (treatment mode), live friction inoculation on tobacco seedlings; assay type: in vivo; settings: for inhibition at 100 µg/mL: Tobacco mosaic virus, read-out: Anti-TMV activity, Curative effect (inhibition), 100 μg/mL, tobacco seedlings, checked on seventh day
# [2] = system: tobacco mosaic virus (TMV); assay: Anti-TMV inactivation activity (inactivation mode), compound mixed with TMV before inoculation of tobacco leaves; assay type: in vivo; settings: Tobacco mosaic virus, read-out: Anti-TMV activity, Inactivation effect (inhibition)
# [3] = system: tobacco mosaic virus (TMV); assay: Anti-TMV protective activity (protection mode), live friction inoculation on tobacco seedlings; assay type: in vivo; settings: Tobacco mosaic virus, read-out: Anti-TMV activity, Protection effect (inhibition)
# [4] = system: tobacco mosaic virus (TMV); assay: Anti-TMV inducing activity (induction mode), tobacco seedlings; assay type: in vivo; settings: Tobacco mosaic virus, read-out: Anti-TMV activity, Induction effect (inhibition), 100 μg/mL, tobacco seedlings
# Alternaria solani = assay: Fungicidal activity, fungi growth rate method, AS; assay type: cell-based; settings: Alternaria solani, 50 μg/mL
# Botrytis cinerea = assay: Fungicidal activity, fungi growth rate method, BC; assay type: cell-based; settings: Botrytis cinerea, 50 μg/mL
# Cercospora arachidicola = assay: Fungicidal activity, fungi growth rate method, CA; assay type: cell-based; settings: Mycosphaerella arachidis; 50 μg/mL; read-out: Fungicidal activity, inhibition, CA
# wheat Gibberella zeae = assay: microbe, parasite or virus in culture; assay type: cell-based; settings: Fusarium graminearum, read-out: Fungicidal activity, inhibition, GZ
# [5] = system: Phytophthora infestans (Mont) de Bary; assay: microbe, parasite or virus in culture; assay type: cell-based; settings: Phytophthora infestans
# Physalospora piricola = assay: Fungicidal activity, fungi growth rate method, PP; assay type: cell-based; settings: 50 μg/mL; read-out: Fungicidal activity, inhibition, PP
# Pellicularia sasakii = assay: Fungicidal activity, fungi growth rate method, PS; assay type: cell-based; settings: 50 μg/mL
# Rhizoctonia cerealis = assay: Fungicidal activity, fungi growth rate method, RC; assay type: cell-based; settings: Ceratobasidium cereale, 50 μg/mL
# Sclerotinia sclerotiorum = assay: microbe, parasite or virus in culture; assay type: cell-based; settings: Sclerotinia sclerotiorum; for EC90: read-out: EC90 against S. sclerotiorum in vitro; for inhibition at 50 µg/mL: 50 μg/mL
# [6] = read-out: Fungicidal activity, inhibition, AS
# [7] = read-out: Fungicidal activity, inhibition, BC
# [8] = read-out: Fungicidal activity, inhibition, PI
# [9] = read-out: Fungicidal activity, inhibition, PS
# [10] = read-out: Fungicidal activity, inhibition, RC
# [11] = read-out: Fungicidal activity (inhibition) against SS: Sclerotinia sclerotiorum
# [12] = read-out: Fungicidal activity, inhibition, SS
Compound,inhibition at 100 µg/mL [1] [%],inhibition at 100 µg/mL [2] [%],inhibition at 100 µg/mL [3] [%],inhibition at 100 µg/mL [4] [%],inhibition at 50 µg/mL (Alternaria solani; [6]) [%],inhibition at 50 µg/mL (Botrytis cinerea; [7]) [%],inhibition at 50 µg/mL (Cercospora arachidicola) [%],inhibition at 50 µg/mL (wheat Gibberella zeae) [%],"inhibition at 50 µg/mL [5, 8] [%]",inhibition at 50 µg/mL (Physalospora piricola) [%],inhibition at 50 µg/mL (Pellicularia sasakii; [9]) [%],inhibition at 50 µg/mL (Rhizoctonia cerealis; [10]) [%],inhibition at 50 µg/mL (Sclerotinia sclerotiorum; [11]) [%],inhibition at 50 µg/mL (Sclerotinia sclerotiorum; [12]) [%],melting point [°C],further results
"O=C(N/C(=C\c1ccccc1)C(=O)N1CCC(O)(c2ccc(Br)cc2)CC1)c1ccc(C(F)(F)F)cc1 [Compound 9, (Z)-N-[1-[[4-(4-bromophenyl)-4-hydroxy-1-piperidinyl]carbonyl]-2-phenylethenyl]-4-(trifluoromethyl)benzamide]",50,15,60,10,15,13,14,0,18,7,17,11,100,100,130 to 131,EC90 (Sclerotinia sclerotiorum): 273 µg/mL
"O=C(NCc1ccccc1Br)/C(=C/c1ccccc1)NC(=O)c1ccccc1 [Compound 52, N-[(1Z)-2-phenyl-1-[[(2-bromophenylmethyl)amino]carbonyl]ethenyl]benzamide]",12,31,20,47,11,18,11,29,16,6,14,18,–,38,178 to 180,–
"O=C(N/C(=C\c1ccccc1)C(=O)N1CCC(O)(c2ccc(Br)cc2)CC1)C1CC1 [Compound 1, (Z)-N-[1-[[4-(4-bromophenyl)-4-hydroxy-1-piperidinyl]carbonyl]-2-phenylethenyl]cyclopropanecarboxamide]",53,83,48,11,21,21,16,26,27,10,14,29,80 to 95,83,163 to 164,"Anti-TMV activity, Curative effect (inhibition) ([1]; 100 μg/mL, tobacco seedlings, checked on seventh day): 54%"
"COC(=O)CCNC(=O)/C(=C/c1ccccc1)NC(=O)c1ccccc1 [Compound 35, (Z)-N-[1-[[1-(3-methyl propionate)amino]carbonyl]-2-phenylethenyl]benzamide]",0,16,3,23,25,21,3,7,13,3,0,7,–,67,139 to 141,–
"O=C(N/C(=C\c1ccc([N+](=O)[O-])cc1)C(=O)N1CCC(O)(c2ccc(Br)cc2)CC1)c1ccccc1 [Compound 23, (Z)-N-[1-[[4-(4-bromophenyl)-4-hydroxy-1-piperidinyl]carbonyl]-2-(4-nitrophenyl)ethenyl]benzamide]",0,4,59,11,25,7,10,19,17,10,33,26,–,67,186 to 188,–
"Cc1snnc1/C=C(\NC(=O)c1ccccc1)C(=O)N1CCC(O)(c2ccc(Br)cc2)CC1 [Compound 28, (Z)-N-[1-[[4-(4-bromophenyl)-4-hydroxy-1-piperidinyl]carbonyl]-2-[4-(5-methyl-1,2,3-thiadiazol)]ethenyl]benzamide]",43,3,36,4,32,24,27,77,19,29,27,62,60 to 80,75,231 to 233,inhibition at 50 µg/mL (Botrytis cinerea; read-out: Fungicidal activity (inhibition) against BC: Botrytis cinerea): ~20%; inhibition at 50 µg/mL ([5]; read-out: Fungicidal activity (inhibition) against PI: Phytophthora infestans (Mont) de Bary): ~20%; inhibition at 50 µg/mL (Pellicularia sasakii; read-out: Fungicidal activity (inhibition) against PS: Pellicularia sasakii): ~20%; inhibition at 50 µg/mL (Rhizoctonia cerealis; read-out: Fungicidal activity (inhibition) against RC: Rhizoctonia cerealis): 62%
"COC(=O)[C@H]1CCCN1C(=O)/C(=C/c1ccccc1)NC(=O)c1ccccc1 [Compound 37, (R,Z)-N-[1-[(2-methylpyrrolidinecarboxylate)]carbonyl-2-phenylethenyl]benzamide]",25,0,2,40,17,21,13,23,5,0,6,13,–,56,155 to 157,–
"O=C(N/C(=C\c1ccc(Cl)cc1)C(=O)N1CCC(O)(c2ccc(Br)cc2)CC1)c1ccccc1 [Compound 18, (Z)-N-[1-[[4-(4-bromophenyl)-4-hydroxy-1-piperidinyl]carbonyl]-2-(4-chlorophenyl)ethenyl]benzamide]",0,27,39,34,43,34,30,49,31,27,29,29,–,93,210 to 212,inhibition at 50 µg/mL (Alternaria solani; read-out: Fungicidal activity (inhibition) against AS: Alternaria solani): 43%; EC90 (Sclerotinia sclerotiorum): 381 µg/mL
